This passage reports Pancreatic response results from ChEMBL document CHEMBL1122060, “Synthesis and some pharmacological properties of Z-Tyr(SO3H)-Met-Gly-Trp-Met-Asp(Phe-NH2)-OH, a 32-beta-aspartyl analogue of cholecystokinin (pancreozymin) 27-33” (1982).

Structures are written as SMILES. *1 amine or outer side, *2 acyl side, *3 side chain or, on linkers, in order; H or OH if unused. Where a SMILES comes first, the peptide text is derived from it. [ ]: non-standard residue; d: D form. βAsp = O=C(O)[C@H](CC(=O)[*:2])N[*:1]

Holding throughout (assay type): functional
The species entered for assay [1] is Felis catus. The assay is described as follows: Pancreatic response measured as optical density of the pancreatic juice secreted 30 minutes following injection of 0.5 ug and diluted to 25 mL with physiological saline.
The species entered for assay [2] is Felis catus. The assay is described as follows: Pancreatic response measured as optical density of the pancreatic juice secreted 30 minutes following injection of 2 ug and diluted to 25 mL with physiological saline.
For assay [3], the species on record is Felis catus. The assay is described as follows: Pancreatic response measured as optical density of the pancreatic juice secreted 30 minutes following injection of 1 ug and diluted to 25 mL with physiological saline.

With `CSCC[C@H](NC(=O)[C@H](Cc1c[nH]c2ccccc12)NC(=O)CNC(=O)[C@H](CCSC)NC(=O)[C@@H](N)Cc1ccc(O)cc1)C(=O)N[C@@H](CC(=O)N[C@@H](Cc1ccccc1)C(N)=O)C(=O)O` (H-YMGWM[βAsp]F-NH2), the Pancreatic response in the assay listed under Felis catus [1] came out at 0.46; in the assay filed under Felis catus [2], 1.47; in the assay filed under Felis catus [3] it was 0.97.
